Data as given in the NIST ThermoML archive (doi:10.1021/je700152c).
Values joined by “and” are separate entries in the source; they are usually repeats but may differ in a detail not shown here. Equal entries are not always repeated. ± gives the expanded uncertainty stated by the source.

Assay: molar heat capacity at saturation pressure

## CCCCn1cc[n+](C)c1.Cc1ccc(S(=O)(=O)[O-])cc1 [1-butyl-3-methylimidazolium tosylate]
125.01 K, Crystal 2
  molar heat capacity: 211.89 ± 2.3 J/K/mol
125.12 K, Metastable crystal
  molar heat capacity: 219.77 ± 2.4 J/K/mol
125.41 K, Crystal 2
  molar heat capacity: 212.45 ± 2.3 J/K/mol
126.82 K, Crystal 2
  molar heat capacity: 214.18 ± 2.3 J/K/mol
126.86 K, Crystal 2
  molar heat capacity: 214.18 ± 2.3 J/K/mol
126.95 K, Metastable crystal
  molar heat capacity: 222.38 ± 2.4 J/K/mol
127.27 K, Crystal 2
  molar heat capacity: 214.65 ± 2.3 J/K/mol
128.68 K, Crystal 2
  molar heat capacity: 216.45 ± 2.3 J/K/mol
128.72 K, Crystal 2
  molar heat capacity: 216.36 ± 2.3 J/K/mol
128.79 K, Metastable crystal
  molar heat capacity: 224.93 ± 2.4 J/K/mol
129.12 K, Crystal 2
  molar heat capacity: 216.95 ± 2.3 J/K/mol
130.54 K, Crystal 2
  molar heat capacity: 218.78 ± 2.4 J/K/mol
130.57 K, Crystal 2
  molar heat capacity: 218.72 ± 2.4 J/K/mol
130.63 K, Metastable crystal
  molar heat capacity: 227.59 ± 2.4 J/K/mol
130.97 K, Crystal 2
  molar heat capacity: 219.24 ± 2.4 J/K/mol
132.4 K, Crystal 2
  molar heat capacity: 221.01 ± 2.4 J/K/mol
132.43 K, Crystal 2
  molar heat capacity: 221.01 ± 2.4 J/K/mol
132.46 K, Metastable crystal
  molar heat capacity: 230.26 ± 2.5 J/K/mol
132.83 K, Crystal 2
  molar heat capacity: 221.54 ± 2.4 J/K/mol
134.26 K, Crystal 2
  molar heat capacity: 223.47 ± 2.4 J/K/mol
134.29 K, Crystal 2
  molar heat capacity: 223.34 ± 2.4 J/K/mol
134.3 K, Metastable crystal
  molar heat capacity: 232.84 ± 2.5 J/K/mol
134.69 K, Crystal 2
  molar heat capacity: 223.96 ± 2.4 J/K/mol
136.12 K, Crystal 2
  molar heat capacity: 225.86 ± 2.4 J/K/mol
136.14 K, Metastable crystal
  molar heat capacity: 235.54 ± 2.5 J/K/mol
136.15 K, Crystal 2
  molar heat capacity: 225.83 ± 2.4 J/K/mol
136.55 K, Crystal 2
  molar heat capacity: 226.35 ± 2.4 J/K/mol
137.98 K, Crystal 2
  molar heat capacity: 228.34 ± 2.5 J/K/mol
137.98 K, Metastable crystal
  molar heat capacity: 238.37 ± 2.5 J/K/mol
138.01 K, Crystal 2
  molar heat capacity: 228.37 ± 2.5 J/K/mol
138.41 K, Crystal 2
  molar heat capacity: 228.74 ± 2.5 J/K/mol
139.81 K, Metastable crystal
  molar heat capacity: 241.04 ± 2.6 J/K/mol
139.84 K, Crystal 2
  molar heat capacity: 230.89 ± 2.5 J/K/mol
139.87 K, Crystal 2
  molar heat capacity: 230.85 ± 2.5 J/K/mol
140.27 K, Crystal 2
  molar heat capacity: 231.16 ± 2.5 J/K/mol
141.65 K, Metastable crystal
  molar heat capacity: 243.74 ± 2.6 J/K/mol
141.7 K, Crystal 2
  molar heat capacity: 233.49 ± 2.5 J/K/mol
141.73 K, Crystal 2
  molar heat capacity: 233.37 ± 2.5 J/K/mol
142.13 K, Crystal 2
  molar heat capacity: 233.8 ± 2.5 J/K/mol
143.48 K, Metastable crystal
  molar heat capacity: 246.44 ± 2.6 J/K/mol
143.56 K, Crystal 2
  molar heat capacity: 236.57 ± 2.5 J/K/mol
143.59 K, Crystal 2
  molar heat capacity: 236.07 ± 2.5 J/K/mol
143.98 K, Crystal 2
  molar heat capacity: 236.57 ± 2.5 J/K/mol
145.31 K, Metastable crystal
  molar heat capacity: 249.26 ± 2.6 J/K/mol
145.41 K, Crystal 2
  molar heat capacity: 240.45 ± 2.5 J/K/mol
145.44 K, Crystal 2
  molar heat capacity: 238.96 ± 2.5 J/K/mol
145.83 K, Crystal 2
  molar heat capacity: 239.61 ± 2.5 J/K/mol
147.15 K, Metastable crystal
  molar heat capacity: 251.93 ± 2.7 J/K/mol
147.26 K, Crystal 2
  molar heat capacity: 246.19 ± 2.6 J/K/mol
147.3 K, Crystal 2
  molar heat capacity: 242.18 ± 2.6 J/K/mol
147.68 K, Crystal 2
  molar heat capacity: 243.36 ± 2.6 J/K/mol
148.98 K, Metastable crystal
  molar heat capacity: 254.72 ± 2.7 J/K/mol
149.09 K, Crystal 2
  molar heat capacity: 256.71 ± 2.7 J/K/mol
149.15 K, Crystal 2
  molar heat capacity: 246.16 ± 2.6 J/K/mol
149.52 K, Crystal 2
  molar heat capacity: 249.76 ± 2.7 J/K/mol
150.8 K, Metastable crystal
  molar heat capacity: 257.49 ± 2.7 J/K/mol
150.89 K, Crystal 2
  molar heat capacity: 272.54 ± 2.9 J/K/mol
150.98 K, Crystal 2
  molar heat capacity: 254.94 ± 2.8 J/K/mol
151.34 K, Crystal 2
  molar heat capacity: 267.23 ± 2.8 J/K/mol
152.63 K, Metastable crystal
  molar heat capacity: 260.28 ± 2.8 J/K/mol
152.68 K, Crystal 2
  molar heat capacity: 270.46 ± 2.9 J/K/mol
152.77 K, Crystal 2
  molar heat capacity: 286.32 ± 3 J/K/mol
153.11 K, Crystal 1
  molar heat capacity: 287.72 ± 3.1 J/K/mol
154.46 K, Metastable crystal
  molar heat capacity: 263.04 ± 2.8 J/K/mol
154.51 K, Crystal 1
  molar heat capacity: 248.64 ± 2.7 J/K/mol
154.55 K, Crystal 1
  molar heat capacity: 265.74 ± 2.9 J/K/mol
154.91 K, Crystal 1
  molar heat capacity: 252.18 ± 2.7 J/K/mol
156.28 K, Metastable crystal
  molar heat capacity: 265.84 ± 2.8 J/K/mol
156.37 K, Crystal 1
  molar heat capacity: 244.36 ± 2.6 J/K/mol
156.4 K, Crystal 1
  molar heat capacity: 246.87 ± 2.6 J/K/mol
156.77 K, Crystal 1
  molar heat capacity: 244.82 ± 2.6 J/K/mol
158.1 K, Metastable crystal
  molar heat capacity: 268.6 ± 2.8 J/K/mol
158.25 K, Crystal 1
  molar heat capacity: 245.1 ± 2.6 J/K/mol
158.27 K, Crystal 1
  molar heat capacity: 245.66 ± 2.6 J/K/mol
158.64 K, Crystal 1
  molar heat capacity: 245.51 ± 2.6 J/K/mol
159.92 K, Metastable crystal
  molar heat capacity: 271.3 ± 2.9 J/K/mol
160.13 K, Crystal 1
  molar heat capacity: 246.75 ± 2.6 J/K/mol
160.14 K, Crystal 1
  molar heat capacity: 247 ± 2.6 J/K/mol
160.51 K, Crystal 1
  molar heat capacity: 247.09 ± 2.6 J/K/mol
161.74 K, Metastable crystal
  molar heat capacity: 273.94 ± 2.9 J/K/mol
162 K, Crystal 1
  molar heat capacity: 248.58 ± 2.6 J/K/mol
162.02 K, Crystal 1
  molar heat capacity: 248.64 ± 2.6 J/K/mol
162.38 K, Crystal 1
  molar heat capacity: 248.95 ± 2.6 J/K/mol
163.55 K, Metastable crystal
  molar heat capacity: 276.55 ± 2.9 J/K/mol
163.88 K, Crystal 1
  molar heat capacity: 250.47 ± 2.6 J/K/mol
163.89 K, Crystal 1
  molar heat capacity: 250.47 ± 2.6 J/K/mol
164.25 K, Crystal 1
  molar heat capacity: 250.81 ± 2.7 J/K/mol
165.36 K, Metastable crystal
  molar heat capacity: 279.12 ± 2.9 J/K/mol
165.76 K, Crystal 1
  molar heat capacity: 252.37 ± 2.7 J/K/mol and 252.4 ± 2.7 J/K/mol
166.12 K, Crystal 1
  molar heat capacity: 252.83 ± 2.7 J/K/mol
167.18 K, Metastable crystal
  molar heat capacity: 281.64 ± 2.9 J/K/mol
167.63 K, Crystal 1
  molar heat capacity: 254.38 ± 2.7 J/K/mol
167.64 K, Crystal 1
  molar heat capacity: 254.38 ± 2.7 J/K/mol
168 K, Crystal 1
  molar heat capacity: 254.82 ± 2.7 J/K/mol
168.99 K, Metastable crystal
  molar heat capacity: 284.12 ± 3 J/K/mol
169.51 K, Crystal 1
  molar heat capacity: 256.4 ± 2.7 J/K/mol and 256.43 ± 2.7 J/K/mol
169.87 K, Crystal 1
  molar heat capacity: 256.8 ± 2.7 J/K/mol
170.8 K, Metastable crystal
  molar heat capacity: 286.54 ± 3 J/K/mol
171.38 K, Crystal 1
  molar heat capacity: 258.48 ± 2.7 J/K/mol
171.39 K, Crystal 1
  molar heat capacity: 258.39 ± 2.7 J/K/mol
171.74 K, Crystal 1
  molar heat capacity: 258.82 ± 2.7 J/K/mol
172.6 K, Metastable crystal
  molar heat capacity: 288.9 ± 3 J/K/mol
173.25 K, Crystal 1
  molar heat capacity: 260.44 ± 2.8 J/K/mol
173.26 K, Crystal 1
  molar heat capacity: 260.44 ± 2.8 J/K/mol
173.61 K, Crystal 1
  molar heat capacity: 260.81 ± 2.8 J/K/mol
174.41 K, Metastable crystal
  molar heat capacity: 291.14 ± 3 J/K/mol
175.13 K, Crystal 1
  molar heat capacity: 262.42 ± 2.8 J/K/mol and 262.45 ± 2.8 J/K/mol
175.48 K, Crystal 1
  molar heat capacity: 262.89 ± 2.8 J/K/mol
176.21 K, Metastable crystal
  molar heat capacity: 293.28 ± 3.1 J/K/mol
177 K, Crystal 1
  molar heat capacity: 264.5 ± 2.8 J/K/mol
177.01 K, Crystal 1
  molar heat capacity: 264.53 ± 2.8 J/K/mol
177.35 K, Crystal 1
  molar heat capacity: 264.94 ± 2.8 J/K/mol
178.02 K, Metastable crystal
  molar heat capacity: 295.36 ± 3.1 J/K/mol
178.87 K, Crystal 1
  molar heat capacity: 266.49 ± 2.8 J/K/mol and 266.55 ± 2.8 J/K/mol
179.21 K, Crystal 1
  molar heat capacity: 266.96 ± 2.8 J/K/mol
179.82 K, Metastable crystal
  molar heat capacity: 297.28 ± 3.1 J/K/mol
180.74 K, Crystal 1
  molar heat capacity: 268.51 ± 2.8 J/K/mol and 268.63 ± 2.8 J/K/mol
181.08 K, Crystal 1
  molar heat capacity: 268.91 ± 2.8 J/K/mol
181.62 K, Metastable crystal
  molar heat capacity: 299.18 ± 3.1 J/K/mol
182.6 K, Crystal 1
  molar heat capacity: 270.65 ± 2.9 J/K/mol
182.94 K, Crystal 1
  molar heat capacity: 270.99 ± 2.9 J/K/mol
183.43 K, Metastable crystal
  molar heat capacity: 301.07 ± 3.1 J/K/mol
184.47 K, Crystal 1
  molar heat capacity: 272.64 ± 2.9 J/K/mol
184.8 K, Crystal 1
  molar heat capacity: 273.01 ± 2.9 J/K/mol
185.23 K, Metastable crystal
  molar heat capacity: 302.81 ± 3.2 J/K/mol
186.33 K, Crystal 1
  molar heat capacity: 274.72 ± 2.9 J/K/mol
186.66 K, Crystal 1
  molar heat capacity: 275.06 ± 2.9 J/K/mol
187.02 K, Metastable crystal
  molar heat capacity: 304.48 ± 3.2 J/K/mol
188.19 K, Crystal 1
  molar heat capacity: 276.76 ± 2.9 J/K/mol
188.51 K, Crystal 1
  molar heat capacity: 277.07 ± 2.9 J/K/mol
188.82 K, Metastable crystal
  molar heat capacity: 306.1 ± 3.2 J/K/mol
190.05 K, Crystal 1
  molar heat capacity: 278.78 ± 2.9 J/K/mol and 278.81 ± 2.9 J/K/mol
190.37 K, Crystal 1
  molar heat capacity: 279.22 ± 2.9 J/K/mol
190.62 K, Metastable crystal
  molar heat capacity: 307.62 ± 3.2 J/K/mol
191.9 K, Crystal 1
  molar heat capacity: 280.86 ± 2.9 J/K/mol
191.91 K, Crystal 1
  molar heat capacity: 280.89 ± 2.9 J/K/mol
192.22 K, Crystal 1
  molar heat capacity: 281.33 ± 2.9 J/K/mol
192.42 K, Metastable crystal
  molar heat capacity: 309.11 ± 3.2 J/K/mol
193.75 K, Crystal 1
  molar heat capacity: 282.97 ± 3 J/K/mol
193.77 K, Crystal 1
  molar heat capacity: 283 ± 3 J/K/mol
194.07 K, Crystal 1
  molar heat capacity: 283.44 ± 3 J/K/mol
194.22 K, Metastable crystal
  molar heat capacity: 310.72 ± 3.1 J/K/mol
195.6 K, Crystal 1
  molar heat capacity: 285.05 ± 3 J/K/mol
195.62 K, Crystal 1
  molar heat capacity: 285.05 ± 3 J/K/mol
195.92 K, Crystal 1
  molar heat capacity: 285.39 ± 3 J/K/mol
196.01 K, Metastable crystal
  molar heat capacity: 311.96 ± 3.1 J/K/mol
197.45 K, Crystal 1
  molar heat capacity: 286.95 ± 3 J/K/mol
197.47 K, Crystal 1
  molar heat capacity: 287.13 ± 3 J/K/mol
197.77 K, Crystal 1
  molar heat capacity: 287.47 ± 3 J/K/mol
197.81 K, Metastable crystal
  molar heat capacity: 313.21 ± 3.4 J/K/mol
199.3 K, Crystal 1
  molar heat capacity: 289.24 ± 3 J/K/mol
199.32 K, Crystal 1
  molar heat capacity: 289.18 ± 3 J/K/mol
199.61 K, Crystal 1
  molar heat capacity: 289.43 ± 3 J/K/mol
199.61 K, Metastable crystal
  molar heat capacity: 314.45 ± 3.4 J/K/mol
201.21 K, Crystal 1
  molar heat capacity: 291.45 ± 3 J/K/mol
201.24 K, Crystal 1
  molar heat capacity: 291.48 ± 3 J/K/mol
201.47 K, Metastable crystal
  molar heat capacity: 316.31 ± 3.4 J/K/mol
201.52 K, Crystal 1
  molar heat capacity: 291.79 ± 3 J/K/mol
203.18 K, Crystal 1
  molar heat capacity: 293.59 ± 3.1 J/K/mol
203.21 K, Crystal 1
  molar heat capacity: 293.87 ± 3.1 J/K/mol
203.39 K, Metastable crystal
  molar heat capacity: 317.86 ± 3.4 J/K/mol
203.49 K, Crystal 1
  molar heat capacity: 293.96 ± 3.1 J/K/mol
205.15 K, Crystal 1
  molar heat capacity: 295.85 ± 3.1 J/K/mol
205.18 K, Crystal 1
  molar heat capacity: 296.01 ± 3.1 J/K/mol
